In assay [1] the target is T1, ErbB2 or EGFR.
T1 construct: enzymes purified from a baculovirus expression system
As to the kind of experiment: ErbB enzyme substrate phosphorylation assay (HTRF), Method A. In kind it is biochemical. The note with it: Table 1, enzyme Method A: substrate mix added first, reaction started with enzyme mix; class over ErbB2 or EGFR. Here is the method: Compounds of the present invention were tested for EGFR, ErbB-2, and ErbB-4 protein tyrosine kinase inhibitory activity in substrate phosphorylation assays using enzymes purified from a baculovirus expression system. Reagent production was conducted essentially as described in Brignola, P. S., et al, (2002) J. Biol. Chem. 277(2): 1576-1585.
The method measures the ability of the isolated enzyme to catalyse the transfer of the gamma-phosphate from ATP onto the tyrosine residue of a biotinylated synthetic peptide referenced “Peptide C” in Brignola, P. S., et al, (2002) J. Biol. Chem. 277(2):1576-1585. The extent of tyrosine phosphorylation was measured using an anti-phosphotyrosine antibody, and quantified by homogenous time-resolved fluorescence (HTRF).
Reactions were performed in black 384-well polystyrene flat-bottom plates in a final volume of 20 μl. Assays were performed by adding 10 μl of each of the following solutions, substrate Mix and enzyme mix: The Substrate mix contained 100 mM 3-[N-morpholino]propanesulfonic acid (MOPS) (pH 7.5), 2 mM MnCl2, 20 μM ATP, 0.01% Tween-20, 0.1 mg/mL (BSA), 0.8 uM peptide substrate, and 1 mM dithiothreitol. The enzyme mix contained 100 mM MOPS (pH7.5); 0.01% Tween-20; 0.1 mg/mL BSA, and either 0.8 nM EGFR, 10 nM ErbB2, or 1 nM ErbB4
During the course of these studies, two separate methods have been used to measure the potency of compounds. In Method A, the substrate mix was added to the compound plates first, then the reaction was started by adding the enzyme mix. In Method B, the enzyme mix was added to the compound plates and the plates were incubated at 20° C. for 1 hour. The reactions were then started by adding the substrate mix.
After initiating the reaction with either method describe above, the reactions were allowed to proceed for 90 minutes at 20° C. The reactions were then terminated by the addition of 20 μl 100 mM EDTA to each well. 40 μl/well of HTRF detection mix were added to the assay plates. The final concentrations of the detection reagents were: 100 mM HEPES (pH7.5), 0.1 mg/mL BSA, 15 nM streptavidin-labeled allophycocyanin (PerkinElmer), and 1 nM europium-labeled anti-phosphotyrosine antibody (PerkinElmer). Assay plates were left unsealed and were counted in a Wallac Multilabel Counter 1420 (PerkinElmer). […]
The data for dose responses were plotted as % Inhibition calculated with the data reduction formula 100*(1−(U1−C2)/(C1−C2)) versus concentration of compound where U is the unknown value, C1 is the average control value obtained for 4.76% DMSO, and C2 is the average control value obtained for 0.035 M EDTA. […] The results for each compound were recorded as pIC50s, calculated as follows: pIC50=−Log 10(K)
A general note: Time-resolved FRET reads energy transfer from a long-lived donor to a nearby acceptor.

The subject of a further assay is Colo205 tumor cell lines. As to the kind of experiment: Methylene blue growth inhibition assay (cellular Method A). The note with it: Homo sapiens, COLO 205, 72 h, Table 3, Method A methylene blue, 3 days. It counts as cell-based. The procedure:
(§1) Human breast (BT474) and head and neck (HN5) were cultured in low glucose DMEM (Life Technologies 12320-032) containing 10% fetal bovine serum (FBS). Human colon tumor cells (Colo205) were cultured in DMEM (Invitrogen, 10564) containing 10% FBS. The SV40 transformed human mammary epithelial cell line to HB4a was transfected with either human H-ras cDNA (HB4a r4.2) or the human c-ErbB2 cDNA (HB4a c5.2). The HB4a clones were cultured in RPMI containing 10% FBS, insulin ([…]), hydrocortisone ([…]), supplemented with the selection agent hygromycin B ([…]). All lines were grown in a humidified incubator at 37° C. in 95% air, 5% CO2. Cells were harvested using trypsin/EDTA, counted using a haemocytometer, and plated in 100 microliters of the appropriate media, at the following densities, in a 96-well tissue culture plate (Falcon 3075): BT474 10,000 cells/well, HN5 3,000 cells/well. The next day, compounds were diluted in DMEM containing […] gentamicin, at twice the final required concentration, from 10 mM stock solutions in DMSO. 100 microliters/well of these dilutions were added to the 100 microliters of media currently on the cell plates. Medium containing 0.6% DMSO was added to control wells. Compounds diluted in DMEM were added to all cell lines. The final concentration of DMSO in all wells was 0.3%. Cells were returned to the incubator (37° C., […]) for 3 days. Medium was then removed by aspiration. Cell biomass was estimated by staining cells with 90 microliters per well methylene blue (Sigma M9140, 0.5% in 1:1 ethanol:water), and incubation at rt for at least 30 minutes. Stain was removed, and the plates rinsed by immersion in deionized water and air-dried. To release stain from the cells 100 microliters of solubilization solution was added (1% N-lauroyl sarcosine, Sodium salt, Sigma L5125, in PBS), and plates were shaken gently for about 30 minutes. Optical density at 620 nm was measured on a microplate reader. Percent inhibition of cell growth was calculated relative to vehicle treated control wells. Concentration of compound that inhibits 50% of control cell growth (IC50) was interpolated using nonlinear regression (Levenberg-Marquardt) and the equation, y=Vmax*(1−(x/(K+x)))+Y2, where “K” was equal to the IC50. Method B: Celltiter Glo® Growth Inhibition Assays

Assay [2] concerns BT474 and HN5 tumor cell lines. Described as above. In kind it is cell-based. The conditions noted are these: Homo sapiens, BT-474 and HN5, 72 h; Table 2, Method A methylene blue, 3 days; class over BT474 and HN5. Here is the method: as §1
In assay [3] the target is T1, ErbB2 or EGFR. As to the kind of experiment: ErbB enzyme substrate phosphorylation assay (HTRF), Method B (enzyme pre-incubated with compound 1 hour). In kind it is biochemical. The note with it: Table 1, enzyme Method B: enzyme mix incubated with compound 1 hour at 20° C., reaction started with substrate mix; class over ErbB2 or EGFR. Put shortly: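 Baculovirus-expressed kinase (0.8 nM EGFR or 10 nM ErbB2 in enzyme mix) phosphorylated biotinylated Peptide C (0.8 µM in substrate mix) with 20 µM ATP in substrate mix, MOPS pH 7.5, MnCl2, 90 min at 20 °C. Method A started with enzyme; Method B pre-incubated enzyme with compound 1 h at 20 °C. HTRF read-out; IC50 from 12-point curve (0.00027–47.6 µM), reported as pIC50.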

Experimental findings from patent US7807673B2, “2-pyrimidinyl pyrazolopyridine ErbB kinase inhibitors” (GlaxoSmithKline LLC, priority 2005, dated 2010) are described below.

SMILES strings stand for the structures.

With `O=C(Cc1cccs1)Nc1cccc(-c2nn3ccccc3c2-c2ccnc(Nc3ccccc3)n2)c1` [Example 4, N-(3-{3-[2-(Phenylamino)-4-pyrimidinyl]pyrazolo[1,5-a]pyridin-2-yl}phenyl)-2-(2-thienyl)acetamide], the “Activity (Method)” value on ErbB2 or EGFR [1] was “++ (A) (at least one pIC50 measurement greater than 6 against either ErbB2 or EGFR but no measurement greater than pIC50 of 7)”.
On the same count and under the same terms, the same measure for `O=C(Cc1cc(F)ccc1F)Nc1cccc(-c2nn3ccccc3c2-c2ccnc(Nc3ccccc3)n2)c1` [Example 6, 2-(2,5-Difluorophenyl)-N-(3-{3-[2-(phenylamino)-4-pyrimidinyl]pyrazolo[1,5-a]pyridin-2-yl}phenyl)acetamide]: “++ (A) (at least one pIC50 measurement greater than 6 against either ErbB2 or EGFR but no measurement greater than pIC50 of 7)”; for `O=C(Cc1cccc(Cl)c1)Nc1cccc(-c2nn3ccccc3c2-c2ccnc(Nc3ccccc3)n2)c1` [Example 5, 2-(3-Chlorophenyl)-N-(3-{3-[2-(phenylamino)-4-pyrimidinyl]pyrazolo-[1,5-a]pyridin-2-yl}phenyl)acetamide]: “+ (A) (no pIC50 measurement greater than 6 against either ErbB2 or EGFR)”.
With `O=C(Cc1ccccc1)Nc1cccc(-c2nn3ccccc3c2-c2ccnc(Nc3ccccc3)n2)c1` [Example 3, 2-Phenyl-N-(3-{3-[2-(phenylamino)-4-pyrimidinyl]pyrazolo[1,5-a]pyridin-2-yl}phenyl)acetamide], the concentration for half-maximal inhibition (IC50) (in the assay on Colo205 tumor cell lines; in assay [2]) was above 1 µM each time. In addition, the “Activity (Method)” value at ErbB2 or EGFR [1] is “++ (A) (at least one pIC50 measurement greater than 6 against either ErbB2 or EGFR but no measurement greater than pIC50 of 7)”.
For the molecule `CCN(CC)CCOc1cccc(Nc2nccc(-c3c(-c4cccc(NC(=O)Cc5cccs5)c4)nn4ccccc34)n2)c1` [Example 14, N-[3-(3-{2-[(3-{[2-(Diethylamino)ethyl]oxy}phenyl)amino]-4-pyrimidinyl}pyrazolo[1,5-a]pyridin-2-yl)phenyl]-2-(2-thienyl)acetamide], the “Activity (Method)” value on ErbB2 or EGFR [3] was “+++ (B) (at least one pIC50 measurement of greater than 7 against either ErbB2 or EGFR)”. The IC50 (with Colo205 tumor cell lines; in assay [2]) was 0.1 to 1 µM in each case.
In the case of `CN(C)Cc1cccc(Nc2nccc(-c3c(-c4cccc(NC(=O)Cc5ccsc5)c4)nn4ccccc34)n2)c1` [Example 24, N-(3-{3-[2-({3-[(Dimethylamino)methyl]phenyl}-amino)-4-pyrimidinyl]pyrazolo[1,5-a]pyridin-2-yl}phenyl)-2-(3-thienyl)acetamide], the “Activity (Method)” value at ErbB2 or EGFR [3] is listed as “+++ (B) (at least one pIC50 measurement of greater than 7 against either ErbB2 or EGFR)”. Also, the IC50 (in the assay with Colo205 tumor cell lines; in assay [2]) was 0.1 to 1 µM in each case.
